Assay results taken from patent US20170050957A1, “4-AMINO-6-(HETEROCYCLIC)PICOLINATES AND 6-AMINO-2-(HETEROCYCLIC)PYRIMIDINE-4-CARBOXYLATES AND THEIR USE AS HERBICIDES” (Dow AgroSciences LLC, priority 2013, published 2017).
Where two headings read alike, the source gives them in different places.

Experiments:
Type in all cases: in vivo
[1] = test system: barnyardgrass (Echinochloa crus-galli); assay: Post-emergent Test I herbicidal activity; settings: 4 Kg ai/ha
Method: (§1) Post-emergent Test I Seeds test species were obtained from commercial suppliers and planted into a 5″-round pot containing soil-less media mix (metro-mix 360®, Sun Gro Horticulture). Postemergence treatments were planted 8-12 days prior to application and cultured in a greenhouse equipped with supplemental light sources to provide a 16 h photoperiod at 24-29° C. All pots were surface irrigated. Approximately 10 milligrams (mg) of each compound were dissolved in 1.3 mL acetone-DMSO (97:3, v/v) and diluted with 4.1 mL water-isopropanol-crop oil concentrate (78:20:2, v/v/v) containing 0.02% Triton X-155. Treatments were serial diluted with the above formulation solvent to provide 1.85, 0.926, 0.462 and 0.231 mg/mL of test compound delivered in 2.7 mL/pot (roughly equivalent to 4.0, 2.0, 1.0, and 0.5 kg/ha, respectively). Formulated compounds were applied using a DeVilbiss® compressed air sprayer at 2-4 psi. Following treatment, pots were returned to the greenhouse for the duration of the experiment. All pots were sub-irrigated as need to provide optimum growing conditions. All pots were fertilized one time per week by subirrigating with Peters Peat-Lite Special® fertilizer (20-10-20). Phytotoxicity ratings were obtained 10 days after treatment postemergence applications. All evaluations were made visually on a scale of 0 to 100 where 0 represents no activity and 100 represents complete plant death. Visual assessments of plant injury were made based on growth reduction, discoloration, leaf deformity and necrosis

[2] = test system: giant foxtail (Setaria faberi); assay: Post-emergent Test I herbicidal activity; settings: 4 Kg ai/ha
Method: as §1

[3] = test system: sunflower (Helianthus annuus); assay: Post-emergent Test I herbicidal activity; settings: 4 Kg ai/ha
Method: as §1

wild oats (Avena fatua) = assay: Post-emergent Test I herbicidal activity; settings: 4 Kg ai/ha
Method: as §1

[4] = test system: Key Broadleaf Weed and Crop Species; assay: Post-emergent Test II herbicidal activity (Table 15); settings: post-emergence, 336 h, 14 d; for pest or weed control at 35 g/ha: 35 g ai/ha; for pest or weed control at 70 g/ha: 70 g ai/ha; for pest or weed control at 280 g/ha: 280 g ai/ha
Summary of the method: (§2)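 Visual injury rating (0 = none, 100 = complete kill) taken 14 d after treatment, relative to untreated plants. Compounds in acetone/DMSO with crop oil concentrate and Triton X-155 were track-sprayed at 187 L/ha onto seedlings at the first-second true leaf stage.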

[5] = test system: Key Grass and Sedge Weeds as well as Grass Crops; assay: Post-emergent Test II herbicidal activity (Table 16); settings: post-emergence, 336 h, 14 d; for pest or weed control at 35 g/ha: 35 g ai/ha; for pest or weed control at 70 g/ha: 70 g ai/ha; for pest or weed control at 140 g/ha: 140 g ai/ha; for pest or weed control at 280 g/ha: 280 g ai/ha
Summary of the method: as §2

[6] = Abutilon theophrasti, velvetleaf (Abutilon theophrasti), read-out: Visual Growth Reduction (%) 14 Days After Application, ABUTH
[7] = Amaranthus retroflexus, redroot pigweed (Amaranthus retroflexus), read-out: Visual Growth Reduction (%) 14 Days After Application, AMARE
[8] = Brassica napus, oilseed rape, canola (Brassica napus), read-out: Visual Growth Reduction (%) 14 Days After Application, BRSNN
[9] = Chenopodium album, lambsquarters (Chenopodium album), read-out: Visual Growth Reduction (%) 14 Days After Application, CHEAL
[10] = Euphorbia heterophylla, wild poinsettia (Euphorbia heterophylla), read-out: Visual Growth Reduction (%) 14 Days After Application, EPHHL
[11] = Helianthus annuus, sunflower (Helianthus annuus), read-out: Visual Growth Reduction (%) 14 Days After Application, HELAN
[12] = Cyperus esculentus, yellow nutsedge (Cyperus esculentus), read-out: Visual Growth Reduction (%) 14 Days After Application, CYPES
[13] = Echinochloa crus-galli, barnyardgrass (Echinochloa crus-galli), read-out: Visual Growth Reduction (%) 14 Days After Application, ECHCG
[14] = Oryza sativa, rice (Oryza sativa), read-out: Visual Growth Reduction (%) 14 Days After Application, ORYSA
[15] = Setaria faberi, giant foxtail (Setaria faberi), read-out: Visual Growth Reduction (%) 14 Days After Application, SETFA
[16] = Triticum aestivum, wheat, spring (Triticum aestivum), read-out: Visual Growth Reduction (%) 14 Days After Application, TRZAS
[17] = Zea mays, maize, corn (Zea mays), read-out: Visual Growth Reduction (%) 14 Days After Application, ZEAMX

COC(=O)c1nc(-c2ccc3sccc3c2)cc(N)c1Cl [Compound 3.05]
Visual Growth Reduction (%) 10 Days After Application ECHCG [1]: A (95-100)
Visual Growth Reduction (%) 10 Days After Application SETFA [2]: A (95-100)
Visual Growth Reduction (%) 10 Days After Application HELAN [3]: B (85-94)
Visual Growth Reduction (%) 10 Days After Application AVEFA (wild oats (Avena fatua)): C (75-84)
pest or weed control at 35 g/ha [4, 6]: 85 to 94%
pest or weed control at 70 g/ha [4, 6]: 85 to 94%
pest or weed control at 280 g/ha [4, 6]: 95 to 100%
pest or weed control at 35 g/ha [4, 7]: 30 to 44%
pest or weed control at 70 g/ha [4, 7]: 45 to 59%
pest or weed control at 280 g/ha [4, 7]: 85 to 94%
pest or weed control at 35 g/ha [4, 8]: 0 to 29%
pest or weed control at 70 g/ha [4, 8]: 0 to 29%
pest or weed control at 280 g/ha [4, 8]: 0 to 29%
pest or weed control at 35 g/ha [4, 9]: 75 to 84%
pest or weed control at 70 g/ha [4, 9]: 85 to 94%
pest or weed control at 140 g/ha ([4]; Chenopodium album, lambsquarters (Chenopodium album), 140 g ai/ha, read-out: Visual Growth Reduction (%) 14 Days After Application, CHEAL): 85 to 94%
pest or weed control at 280 g/ha [4, 9]: 85 to 94%
pest or weed control at 35 g/ha [4, 10]: 60 to 74%
pest or weed control at 70 g/ha [4, 10]: 60 to 74%
pest or weed control at 280 g/ha [4, 10]: 85 to 94%
pest or weed control at 35 g/ha [4, 11]: 0 to 29%
pest or weed control at 70 g/ha [4, 11]: 0 to 29%
pest or weed control at 280 g/ha [4, 11]: 45 to 59%
pest or weed control at 35 g/ha [5, 12]: 0 to 29%
pest or weed control at 70 g/ha [5, 12]: 0 to 29%
pest or weed control at 140 g/ha [5, 12]: 0 to 29%
pest or weed control at 280 g/ha [5, 12]: 0 to 29%
pest or weed control at 35 g/ha [5, 13]: 45 to 59%
pest or weed control at 70 g/ha [5, 13]: 75 to 84%
pest or weed control at 140 g/ha [5, 13]: 85 to 94%
pest or weed control at 280 g/ha [5, 13]: 85 to 94%
pest or weed control at 35 g/ha [5, 14]: 0 to 29%
pest or weed control at 70 g/ha [5, 14]: 0 to 29%
pest or weed control at 140 g/ha [5, 14]: 0 to 29%
pest or weed control at 280 g/ha [5, 14]: 0 to 29%
pest or weed control at 35 g/ha [5, 15]: 0 to 29%
pest or weed control at 70 g/ha [5, 15]: 0 to 29%
pest or weed control at 140 g/ha [5, 15]: 30 to 44%
pest or weed control at 280 g/ha [5, 15]: 60 to 74%
pest or weed control at 35 g/ha [5, 16]: 0 to 29%
pest or weed control at 70 g/ha [5, 16]: 0 to 29%
pest or weed control at 140 g/ha [5, 16]: 0 to 29%
pest or weed control at 280 g/ha [5, 16]: 0 to 29%
pest or weed control at 35 g/ha [5, 17]: 0 to 29%
pest or weed control at 70 g/ha [5, 17]: 0 to 29%
pest or weed control at 140 g/ha [5, 17]: 45 to 59%
pest or weed control at 280 g/ha [5, 17]: 60 to 74%
